{"source": "patent US6458981B1", "about": "“Composition and method for preparing amino acid chelate hydroxides free of interfering ions” (Albion International, Inc., priority 2000, dated 2002)", "key": {"Particle size": {"test": "Particle size", "type": "physicochemical", "source_text": "The particle size found in Sample 1 and Sample 2 was about 70 mesh."}, "[1]": {"test": "Addition to stimulated gastric solution (stability in an acid environment)", "type": "physicochemical", "conditions": "added to a stimulated gastric solution", "source_text": "Sample 1 was similarly added to a stimulated gastric solution."}, "[2]": {"test": "Shaking the powder in a plastic bag (electrostatic behaviour)", "type": "physicochemical", "conditions": "shaken in a plastic bag", "protocol": "A 10:1 mixture of copper glycinate to terra alba (CaSO4) [Sample 1] was prepared and shaken together in a plastic bag. Next, a pure copper glycinate without the presence of terra alba [Sample 2] was also prepared and shaken in a plastic bag."}, "[3]": {"test": "Rubbing a portion between thumb and finger (hygroscopicity)", "type": "physicochemical", "conditions": "rubbed between the thumb and finger; moisture from thumb, finger and surrounding air", "source_text": "Sample 1 was further compared to Sample 2 by rubbing a portion of each between the thumb and finger."}, "[4]": {"conditions": "zero ionic strength; reaction M^2+ + (Gly)^- <-> M(Gly)^+; cited from earlier work"}}}
{"compound": "NCC(=O)[O-].NCC(=O)[O-].[Cu+2]", "note": "[Sample 2, copper glycinate]", "values": [{"measurement": "particle size", "setting": "Particle size", "result": "about 70 mesh"}, {"measurement": "color change in stimulated gastric solution (stability in acid environment)", "setting": "[1]", "result": "caused the product to change color"}, {"measurement": "electrostatic behaviour: product sticking to the walls of the bag", "setting": "[2]", "result": "a blue haze of product stuck the walls of the bag"}, {"measurement": "hygroscopicity: balling up with moisture", "setting": "[3]", "result": "quickly balled up with moisture"}]}
{"compound": "copper", "values": [{"measurement": "log of the equilibrium constant", "setting": "[4]", "result": 8.56}]}
